According to US12162836B2, “N-acyl-{4-[(4-aryl-phenyl)sulfonylmethyl]piperidine} compounds and their therapeutic use” (Modern Biosciences Limited, priority 2019, dated 2024):

Tests used:
[1] = test system: human hepatocytes; assay: Human Hepatocyte Stability; format: in vitro ADME; conditions: for metabolic stability (in words): human hepatocytes
Procedure: (§1) Metabolic stability of test compounds was measured by determination of the rate of disappearance of the compound when incubated in the presence of human hepatocytes, a primary source of the most important enzymes (cytochrome P450s) involved in drug metabolism. Study of drug stability in the presence of primary hepatocytes is accepted as a valuable model permitting rapid prediction of in vivo drug stability.
(§2) Human hepatocytes were obtained from a commercial source and viability was assessed using a trypan blue solution prior to use. Test compounds (final concentration 1 μM, 0.1 DMSO, 0.9% acetonitrile) or a marker (diclofenac or diltiazem, final assay concentration 1 μM, 0.1% DMSO, 0.9% acetonitrile) were incubated with pooled hepatocytes for a 60 minute period and samples removed at up to 6 time points and analysed by LC-MS/MS for the presence/amount of test compounds.
(§3) Each compound was incubated for 0, 5, 15, 30, 45, or 60 minutes. The reactions were stopped by the addition of methanol containing an internal standard (1 μM Tolbutamide) at the appropriate time points, mixed and placed at −20° C. for 1 hour to quench and allow protein to precipitate. All samples were centrifuged (2500× g, 20 minutes, 4° C.). The aliquots were analysed using LC-MS/MS. Reactions were performed in duplicate at 37° C.
(§4) Data were processed, and the results plotted as In(concentration) vs. time. The elimination rate constant (slope of the regression line, k) was calculated using the following formula, where C(t) is the concentration at time t and C(0) is the starting concentration:
(§5) The half-life (t1/2) was calculated using the following formula: […]
(§6) The intrinsic clearance (Clint) was calculated using the following formula, where [cell] is the hepatocyte concentration in the assay: […]

[2] = Rodent Pharmacokinetics Studies; format: in vivo, rat; conditions: male Han Wistar rats; for i.v. AUC: 0.25 mg/kg intravenous; for Bioavail, F: oral vs intravenous; for half-life: rat, plasma
Excerpt: Absorption and metabolic stability were studied using an in vivo pharmacokinetics assay.
[…] Test compounds were formulated in 0.5% carboxymethylcellulose (CMC)/0.1% Tween-80 for administration via the oral route, or in 5% DMSO/10% solutol in saline for administration via the intravenous route. For compound HMC-C-01-A the oral administration was formulated in 2% dimethylacetamide/20% hydroxypropyl-β-cyclodextrin in water. Animals were given free access to food throughout the study except for fasting overnight and until 2 hours post dose on the day of dosing.
Blood samples were taken from the retro-orbital plexus at the following time points and placed in microtubes containing 20% K2EDTA solution:
Oral Dosing: predose; 0.25, 0.5, 1, 2, 4, 6, 8, 12 and 24 hours post dose.
Blood samples were centrifuged to obtain plasma, which was transferred to a separate container and frozen at −20° C.
For analysis, samples were thawed at room temperature and prepared by protein precipitation with acetonitrile spiked with internal standard (500 ng/mL glipizide) in the ratio 1:4 with plasma.
The pharmacokinetic parameters for the test compounds were calculated by Phoenix WinNonlin version 8.0 (Certara, CA) using standard non-compartmental methods. Peak plasma concentrations (Cmax) and time of the peak plasma concentration (Tmax) were the observed values. The area under the plasma concentration-time curve (AUC) was determined by use of the linear trapezoidal rule up to the last measurable concentration (AUClast) and thereafter by extrapolation of the terminal elimination phase to infinity (AUCinf). The elimination phase half-life (t1/2) was calculated as 0.693/kel.

[3] = target: CYP1A2 (Homo sapiens (Human), UniProt P05177); assay: Human Cytochrome P450 Inhibition Assay (Bactosomes); format: in vitro ADME; conditions: recombinant enzyme
CYP1A2, sequence (P05177 whole entry, canonical isoform): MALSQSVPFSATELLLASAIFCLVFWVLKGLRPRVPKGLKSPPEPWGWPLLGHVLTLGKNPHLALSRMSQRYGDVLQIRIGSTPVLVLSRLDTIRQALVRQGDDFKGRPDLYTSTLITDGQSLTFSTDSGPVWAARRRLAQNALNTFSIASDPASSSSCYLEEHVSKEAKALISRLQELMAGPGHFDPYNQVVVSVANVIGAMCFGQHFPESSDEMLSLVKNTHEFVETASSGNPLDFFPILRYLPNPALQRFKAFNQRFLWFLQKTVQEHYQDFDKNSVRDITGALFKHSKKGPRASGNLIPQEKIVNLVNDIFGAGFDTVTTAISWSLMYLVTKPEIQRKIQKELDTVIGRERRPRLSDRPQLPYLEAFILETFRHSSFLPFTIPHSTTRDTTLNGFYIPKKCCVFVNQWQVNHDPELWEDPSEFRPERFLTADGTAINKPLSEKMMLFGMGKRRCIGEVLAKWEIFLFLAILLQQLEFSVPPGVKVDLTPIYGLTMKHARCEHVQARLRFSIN
Procedure: (§7) The ability of test compounds to inhibit five of the most relevant cytochrome P450 enzymes was measured by determination of the activity of cytochrome P450 enzymes in recombinant cytochrome preparations, called Bactosomes (Cypex Ltd, Dundee, Scotland UK DD2 1 NH), in the presence of a specific probe substrate. Bactosomes are a highly efficient and cost-effective source of recombinant CYP450s which have a higher specific activity of enzyme compared to other sources, such as liver microsomes. […] The following CYP450 isoforms were assayed: CYP1A2, CYP2C9, CYP2C19, CYP2D6 and CYP3A4. The study of CYP450 inhibition potential in Bactosomes is accepted as a valuable model permitting rapid prediction of potential drug-drug interactions in vivo (see, e.g., Weaver et al., 2003).
(§8) Bactosomes were obtained from a commercial source (Cypex, Scotland, UK). Test compounds were incubated with Bactosomes at 6 concentrations. Samples were incubated for 10 minutes, after which the reaction was stopped and the samples analysed by LC-MS/MS Multiple Reaction Monitoring (MRM) for the presence/amount of substrate probe.
(§9) CYP450 enzymes (final protein 75 pmol/mL for CYP1A2; 12.5 pmol/mL for CYP2C19; and 25 pmol/mL for CYP2C9, 2D6 and 3A4), 0.1 M phosphate buffer pH 7.4, probe and test compound (final concentration 50, 15.8, 5, 1.58, 0.5 and 0.158 μM; diluted from 10 mM stock solution to give a final DMSO concentration of 1%) were pre-incubated at 37° C. for 5 minutes. The reaction was initiated by the addition of 20 μL of 10 mM NADPH in phosphate buffer. The final incubation volume was 200 μL. The following control inhibitors were used for each CYP450 inhibition assay: CYP1A2: α-naphthoflavone; CYP2C9: sulfaphenazole; CYP2C19: tranylcypromine; CYP2D6: quinidine; CYP3A4: ketoconazole.
(§10) Each compound was incubated for 10 minutes at 37° C. The reactions were stopped by the addition of methanol (final composition 1:1, aqueous: methanol). The incubation plates were shaken, chilled at […] for 2 hours, and centrifuged at 3500 rpm for 15 minutes at 4° C. to precipitate the protein.

[4] = target: CYP2C19 (Homo sapiens (Human), UniProt P33261); assay: as above; format: in vitro ADME; conditions: recombinant Bactosomes, 10 minutes
CYP2C19, sequence (P33261 whole entry): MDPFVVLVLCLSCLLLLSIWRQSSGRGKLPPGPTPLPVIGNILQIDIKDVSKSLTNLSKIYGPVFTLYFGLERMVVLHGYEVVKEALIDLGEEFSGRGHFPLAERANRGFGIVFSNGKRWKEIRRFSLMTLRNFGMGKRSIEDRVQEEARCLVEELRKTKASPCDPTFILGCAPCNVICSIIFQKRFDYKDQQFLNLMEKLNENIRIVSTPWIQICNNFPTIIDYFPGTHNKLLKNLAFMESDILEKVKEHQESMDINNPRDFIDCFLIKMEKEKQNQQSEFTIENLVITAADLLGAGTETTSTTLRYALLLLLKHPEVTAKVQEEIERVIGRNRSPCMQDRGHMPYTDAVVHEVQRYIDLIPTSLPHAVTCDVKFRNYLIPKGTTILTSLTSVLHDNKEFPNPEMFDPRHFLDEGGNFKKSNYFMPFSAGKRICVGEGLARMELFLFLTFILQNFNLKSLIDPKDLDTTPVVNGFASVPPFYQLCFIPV
Procedure: as §7, §8, §9, §10

[5] = target: CYP3A4 (Homo sapiens (Human), UniProt P08684); assay: as above; format: in vitro ADME; conditions: recombinant Bactosomes, 10 minutes
CYP3A4, sequence (P08684 whole entry): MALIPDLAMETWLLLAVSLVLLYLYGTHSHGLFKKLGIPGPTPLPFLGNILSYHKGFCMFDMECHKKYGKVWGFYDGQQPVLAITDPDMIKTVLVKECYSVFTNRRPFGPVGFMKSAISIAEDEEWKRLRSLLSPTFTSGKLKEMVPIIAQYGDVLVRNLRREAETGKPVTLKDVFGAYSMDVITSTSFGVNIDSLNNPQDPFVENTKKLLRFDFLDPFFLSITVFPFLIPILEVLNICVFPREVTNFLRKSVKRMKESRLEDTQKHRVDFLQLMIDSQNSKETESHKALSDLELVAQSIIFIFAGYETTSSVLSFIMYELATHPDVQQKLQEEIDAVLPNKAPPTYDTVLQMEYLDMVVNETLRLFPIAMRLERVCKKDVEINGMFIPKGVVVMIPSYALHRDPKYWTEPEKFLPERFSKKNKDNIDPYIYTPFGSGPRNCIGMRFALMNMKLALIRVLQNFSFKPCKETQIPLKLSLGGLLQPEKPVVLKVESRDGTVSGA
Procedure: as §7, §8, §9, §10

[6] = target: CYP2D6 (Homo sapiens (Human), UniProt P10635); assay: as above; format: in vitro ADME; conditions: recombinant Bactosomes, 10 minutes
CYP2D6, sequence (P10635 whole entry): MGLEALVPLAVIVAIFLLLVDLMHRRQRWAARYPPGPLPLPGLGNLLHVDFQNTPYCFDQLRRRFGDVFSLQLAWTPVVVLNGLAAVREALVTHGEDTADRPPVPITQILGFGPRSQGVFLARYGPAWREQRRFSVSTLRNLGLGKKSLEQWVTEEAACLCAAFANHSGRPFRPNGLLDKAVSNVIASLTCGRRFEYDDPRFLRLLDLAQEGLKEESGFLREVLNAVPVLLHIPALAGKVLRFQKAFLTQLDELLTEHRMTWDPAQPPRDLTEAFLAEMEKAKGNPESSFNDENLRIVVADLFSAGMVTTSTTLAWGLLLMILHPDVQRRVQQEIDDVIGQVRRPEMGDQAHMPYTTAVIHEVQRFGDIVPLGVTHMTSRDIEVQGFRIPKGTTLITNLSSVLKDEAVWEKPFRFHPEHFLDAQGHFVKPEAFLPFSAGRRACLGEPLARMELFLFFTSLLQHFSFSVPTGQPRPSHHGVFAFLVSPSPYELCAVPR
Procedure: as §7, §8, §9, §10

[7] = target: CYP2C9 (Homo sapiens (Human), UniProt P11712); assay: as above; format: in vitro ADME; conditions: recombinant Bactosomes, 10 minutes
CYP2C9, sequence (P11712 whole entry): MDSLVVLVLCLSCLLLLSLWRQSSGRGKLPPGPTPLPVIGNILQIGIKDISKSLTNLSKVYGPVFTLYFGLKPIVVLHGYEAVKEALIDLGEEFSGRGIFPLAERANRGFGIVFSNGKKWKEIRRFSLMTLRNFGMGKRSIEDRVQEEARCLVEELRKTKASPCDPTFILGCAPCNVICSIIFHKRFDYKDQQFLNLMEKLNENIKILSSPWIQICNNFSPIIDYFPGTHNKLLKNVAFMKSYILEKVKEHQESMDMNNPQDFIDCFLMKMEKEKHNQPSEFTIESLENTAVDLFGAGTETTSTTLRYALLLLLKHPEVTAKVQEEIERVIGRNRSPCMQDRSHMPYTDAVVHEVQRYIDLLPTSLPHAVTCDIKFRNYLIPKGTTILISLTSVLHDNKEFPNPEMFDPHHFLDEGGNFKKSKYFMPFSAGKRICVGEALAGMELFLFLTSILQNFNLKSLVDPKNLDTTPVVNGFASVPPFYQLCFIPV
Procedure: as §7, §8, §9, §10

[8] = Human Hepatocyte Stability; format: in vitro ADME; conditions: pooled human hepatocytes, 1 μM, 60 minute incubation; for half-life at 1 μM: read-out: Human t1/2
Procedure: as §1, §2, §3, §4, §5, §6

[9] = test system: CYP1A2, CYP2C9, CYP2C19, CYP2D6 and CYP3A4; format: in vitro ADME, human
Procedure: as §7
as §8, with “probe. […]” for “probe.”

[10] = pooled human hepatocytes, 1 μM, 60 minute incubation

Structure (SMILES) | i.v. AUC [2] | Bioavail, F [2] | IC50 [4] | IC50 [5] | IC50 [6] | IC50 [7] | hepatocyte CLint at 1 μM [8] | half-life at 1 μM [8] | metabolic stability (in words) [1] | p.o. AUC ([2]; 1.25 mg/kg orally) | half-life [2] | IC50 ([3]; human, 10 min, pH 7.4) | Human Clint [1, 10] | Human t1/2 [1, 10] | T1/2 [2] | p.o. AUC ([2]; dosed at 5 mg/kg orally) | IC50 [3] | drug-drug interaction liability, CYP450 inhibition profile (in words) [9]
CC1(O)CCC(NS(=O)(=O)c2ccc(-c3ccc(F)cc3F)cc2)CC1 (stereo not drawn) [ABD899, reference compound] | 2133 ng/mL/min | 50% | 7.3 µM | 21.6 µM | 45.3 µM | 3.9 µM |  |  |  |  |  |  | 9 uL/min/million cells | 2.48 h | 10.8 h | 10740 ^(4) ng/mL/min | > 25 µM | 
CC(=O)N1CCC(CS(=O)(=O)c2ccc(-c3ccc(F)cc3F)cc2)CC1 [NASMP-01, 1-(4-(((2′,4′-Difluoro-[1,1′-biphenyl]-4-yl)sulfonyl)methyl)piperidin-1-yl)ethan-1-one] | 816 ng/mL/min | 56% | > 50 µM | > 50 µM | > 50 µM | > 50 µM | < 3 µL/min/1e6 cells | > 7.67 h | exceptionally good stability | 2299 ng/mL/min | 6.6 h | > 50 µM |  |  |  |  |  | particularly good profile
CC(=O)N1CCC(CS(=O)(=O)c2ccc(-c3ccc(C#N)cc3Cl)cc2)CC1 [NASMP-05, 4′-(((1-Acetylpiperidin-4-yl)methyl)sulfonyl)-2-chloro-[1,1′-biphenyl]-4-carbonitrile] |  |  | > 50 µM | > 50 µM | > 50 µM | > 50 µM |  |  | exceptionally good stability |  |  | > 50 µM |  |  |  |  |  | particularly good profile
CC(=O)N1CCC(CS(=O)(=O)c2ccc(-c3ccc(Cl)cc3C#N)cc2)CC1 [NASMP-06, 4′-(((1-Acetylpiperidin-4-yl)methyl)sulfonyl)-4-chloro-[1,1′-biphenyl]-2-carbonitrile] | 349 ng/mL/min | 24% | > 50 µM | > 50 µM | > 50 µM | 42.7 µM |  | > 1 h | exceptionally good stability | 3030 ng/mL/min | 3.3 h | > 50 µM |  |  |  |  |  | 
CC(=O)N1CCC(CS(=O)(=O)c2ccc(-c3ccc(C(F)(F)F)cc3F)cc2)CC1 [NASMP-07, 1-(4-(((2′-Fluoro-4′-(trifluoromethyl)-[1,1′-biphenyl]-4-yl)sulfonyl)methyl)piperidin-1-yl)ethan-1-one] |  |  | 36.4 µM | > 50 µM | > 50 µM | 19.6 µM | 1.1 µL/min/1e6 cells | > 1 h |  |  |  | > 50 µM |  |  |  |  |  | 

The next lines start with results.

i.v. AUC [2] | Bioavail, F [2] | IC50 [4] | IC50 [5] | IC50 [6] | IC50 [7] | hepatocyte CLint at 1 μM [8] | half-life at 1 μM [8] | metabolic stability (in words) [1] | p.o. AUC ([2]; 1.25 mg/kg orally) | half-life [2] | IC50 ([3]; human, 10 min, pH 7.4) | Structure (SMILES) | Human Clint [1, 10] | Human t1/2 [1, 10] | T1/2 [2] | p.o. AUC ([2]; dosed at 5 mg/kg orally) | IC50 [3] | drug-drug interaction liability, CYP450 inhibition profile (in words) [9]
 |  | 17.8 µM | 44.5 µM | > 50 µM | > 50 µM | < 3.4 µL/min/1e6 cells | > 6.88 h | exceptionally good stability |  |  | > 50 µM | CC(=O)N1CCC(CS(=O)(=O)c2ccc(-c3c(F)cccc3F)cc2)CC1 [NASMP-09, 1-(4-(((2′,6′-Difluoro-[1,1′-biphenyl]-4-yl)sulfonyl)methyl)piperidin-1-yl)ethan-1-one] |  |  |  |  |  | 
581 ng/mL/min | >69% | > 50 µM | > 50 µM | 45.4 µM | 15.4 µM |  |  | exceptionally good stability | 3160 ng/mL/min | 5.1 h | > 50 µM | CC(=O)N1CCC(CS(=O)(=O)c2ccc(-c3ccc(F)cc3F)cc2C(F)(F)F)CC1 [NASMP-12, 1-(4-(((2′,4′-Difluoro-3-(trifluoromethyl)-[1,1′-biphenyl]-4-yl)sulfonyl)methyl)piperidin-1-yl)ethan-1-one] |  |  |  |  |  | 
282 ng/mL/min | >62% | > 50 µM | > 50 µM | > 50 µM | 21.5 µM |  | > 1 h | exceptionally good stability | 1750 ng/mL/min | 4.9 h | > 50 µM | CCC(=O)N1CCC(CS(=O)(=O)c2ccc(-c3ccc(F)cc3F)cc2)CC1 [NASMP-15, 1-(4-(((2′,4′-Difluoro-[1,1′-biphenyl]-4-yl)sulfonyl)methyl)piperidin-1-yl)propan-1-one] |  |  |  |  |  | 
